Literature values in article PMC10671431, “New Derivatives of N-Hydroxybutanamide: Preparation, MMP Inhibition, Cytotoxicity, and Antitumor Activity” (International Journal of Molecular Sciences, 2023).
Where two headings read alike, the source gives them in different places.

Columns and labels:
[1] = system: human malignant glioma cells U-87; set-up: method as in PMID 10213221; details: cited from earlier work
[2] = system: human MV522 lung cancer cells in nude mice; set-up: method as in PMID 10430098; details: cited from earlier work
Lewis lung carcinoma = system: Lewis lung carcinoma; set-up: method as in PMID 9247252; details: cited from earlier work
[3] = system: WM266-4 melanoma cells in nude mice; set-up: method as in PMID 27687955; details: cited from earlier work
[4] = system: pancreatic adenocarcinoma HPAC cells; set-up: method as in PMID 9224409; details: 4000 ng/mL (8.37 μM), 24 h of exposure; cited from earlier work
[5] = system: rat prostate cells derived from R3327-MatLyLu Dunning tumor; set-up: method as in PMID 10754522; details: 4000 ng/mL (8.37 μM), 48 h of exposure; cited from earlier work
[6] = system: pancreatic carcinoma cells CD18; set-up: method as in PMID 24022491; details: 5 μM, 24 h of exposure; cited from earlier work
[7] = system: pancreatic carcinoma cells MiaPaCa2; set-up: method as in PMID 24022491; details: 5 μM, 24 h of exposure; cited from earlier work
human glioma U-251 cells = system: human glioma U-251 cells; set-up: method as in PMID 10048980; details: 10 μM, 96 h of exposure; cited from earlier work
[8] = system: pancreatic adenocarcinoma cells AsPC1; set-up: method as in PMID 10767785; details: 72 h of exposure, cited from earlier work
[9] = system: pancreatic adenocarcinoma cells Capan1; set-up: method as in PMID 10767785; details: 72 h of exposure, cited from earlier work
[10] = system: Shionogi hormone-responsive breast carcinoma cells; set-up: method as in PMID 8347186; details: 156 μg/mL (326.61 μM), 96 h of exposure; cited from earlier work
B16-BL6 melanoma = system: B16-BL6 melanoma; set-up: method as in PMID 8050828; details: mice with B16-BL6 melanoma; cited from earlier work
MMP-1 = system: MMP-1; set-up: method as in PMID 23541335, PMID 16538215; details: cited from earlier work
MMP-8 = system: MMP-8; set-up: method as in PMID 23541335, PMID 16538215; details: cited from earlier work
MMP-13 = system: MMP-13; set-up: method as in PMID 23541335, PMID 16538215; details: cited from earlier work
[11] = system: hormone-sensitive prostate cancer G subline of Dunning tumor; set-up: method as in PMID 16096433; details: rats; cited from earlier work
[12] = concentrations up to 10,000 ng/mL (20.94 μM)
[13] = higher concentrations (up to 100,000 ng/mL or 209.36 μM)

Structure (SMILES): CC1(C)SCCN(S(=O)(=O)c2ccc(Oc3ccncc3)cc2)[C@H]1C(=O)NO [Prinomastat]
- concentrations toxic to cells [1]: above 100 μM
- tumor growth [2]: inhibit the growth
- tumor growth (Lewis lung carcinoma): inhibit the growth

Structure (SMILES): Nc1ccc(Oc2ccc(S(=O)(=O)CC3CS3)cc2)cc1 (stereo not shown) [ND-322]
- tumor growth [3]: inhibited the growth

Structure (SMILES): CNC(=O)[C@H](Cc1ccccc1)NC(=O)[C@H](CC(C)C)[C@H](CSc1cccs1)C(=O)NO [Batimastat]
- inhibition of cell growth [4]: inhibit the growth
- inhibition of cell growth [5]: inhibit the growth
- toxicity to cells [6]: toxic
- toxicity to cells [7]: toxic
- reduction in cell viability (human glioma U-251 cells): 20–40%
- toxicity to cells [8, 12]: no toxicity
- toxicity to cells [8, 13]: only mild toxicity
- toxicity to cells [9, 12]: no toxicity
- toxicity to cells [9, 13]: only mild toxicity
- effect on cell density [10]: no apparent effect
- tumor growth (B16-BL6 melanoma): inhibit tumor growth

Structure (SMILES): O=C(C[C@H](CSc1ccccc1)C(=O)O)c1ccc(-c2ccc(Cl)cc2)cc1 [tanomastat]
- inhibition of MMP-1 (MMP-1): does not inhibit
- inhibition of MMP-8 (MMP-8): does not inhibit
- inhibition of MMP-13 (MMP-13): does not inhibit

Structure (SMILES): O=C1NC(=O)C(c2ccc(-c3ccccc3)cc2)(N2CCN(c3ccc([N+](=O)[O-])cc3)CC2)C(=O)N1 [RO 28-2653]
- tumor growth [11]: inhibit the growth
